Results: patent US20110003694A1, “USE OF SOLUTIONS OF MINT OIL OR OF L-CARVONE FOR THE FUNGICIDAL AND/OR ANTI-GERMINATING TREATMENT OF BULBS AND/OR TUBERS” (Zone Artisanale La Crau Route Nationale 7, priority 2007, published 2011)

Tested on: silver scurf (Helminthosporium solani)
Test: Silver scurf coverage on Roseval potatoes after three months storage
Type: in vivo
Conditions: three months storage at 8° C., thermal fogging
Method: Roseval potatoes were treated by thermal fogging with mint oil at 90 g/tonne, or with 67-72 g/tonne of L-carvone, then three times at 30 g/tonne, or 22.5-24 g/tonne of L-carvone, at 21-day intervals. They were then stored for three months at 8° C. The silver scurf coverage rates were measured on the batches treated with L-carvone and on the controls treated by thermal fogging with CIPC at 200 g/L at a dose of 60 ml/tonne for the first application then at 40 ml/tonne for the subsequent applications.

| SMILES | Coverage 5-75% (%) Class 4 | Coverage 6-25% (%) Class 2 | Coverage 26-50% (%) Class 3 | Coverage >75% (%) Class 5 | Coverage ≦5% (%) Class 1 | Silver scurf index (0-100) | Undamaged tubers (%) Class 0 |
| --- | --- | --- | --- | --- | --- | --- | --- |
| C=C(C)C1CC=C(C)C(=O)C1 [L-carvone, 2-methyl-5-(1-methylethenyl)-2-cyclohexen-1-one] | 0.0% | 0.0 b % | 0.0 b % | 0.0% | 28.5% | 0.8 b | 71.5 a % |
| CC(C)OC(=O)Nc1cccc(Cl)c1 [Thermo reference] | 0.7% | 7.7 a % | 3.9 a % | 1.5% | 26.2% | 5.7 a | 60.2 b % |
